Test results: publication PMC11568214, “The impact of 9-azaglycophymine and phenylguanidine derivatives on the proliferation of various breast cancer cell lines in vitro and in vivo” (Scientific Reports, 2024)
Several values for one entry are separate records, joined by “and”; a condition that tells them apart may be missing. Equal entries are not always repeated. Entries after “also recorded” stand apart in the source; their conditions may differ. Where two headings read alike, the source gives them in different places.

Columns and labels:
MCF-7 = experiment: Crystal violet (CV) cell viability assay, IC50 determination; format: cell-based; conditions: Homo sapiens, MCF7, 72 h treatment, mean ± SD
Description: (§1) For initial testing of the cytotoxic effect of the available glycophymine compounds (Table S2), cells were treated with compound in three concentrations: 1, 10 and 50 µM. Cells were seeded in 96-well plates and allowed to adhere overnight. Then they were treated for 72 h under standard culture conditions. […] For IC50 determination, the compounds were tested at seven concentrations (0.78, 1.56, 3.13, 6.25, 12.5, 25 and 50 µM). Subsequently, the cell viability was determined by using the crystal violet (CV) assay. Moreover, the selected compounds were tested against the mouse breast cancer cell line 4T1 (TNBC) as well. The compounds were prepared initially to obtain a stock solution of 20 mM in DMSO. Later, the working solutions were prepared by mixing the required amount of DMSO stock with the optimal medium for each cell line. The DMSO concentration in the final solution was always maintained lower than 0.5% to avoid any DMSO-derived side effects.
(§2) For CV assays, after 72 h treatment, the treatment medium was discarded from the 96-well plates, and the cells were washed using 50 µL of PBS. Cells were fixed by adding 50 µL of 4% (v/v) paraformaldehyde (PFA) in PBS for 15 min at room temperature (RT). Afterwards, PFA was discarded, and the plates were dried for 15 min at RT. 50 µL of CV working solution (0.1% w/v CV in PBS) were added to the wells, followed by 15 min incubation at RT. Subsequently, the CV solution was discarded, and the plates were washed using aqua bidest. (ddH2O) to remove any remaining CV solution. The plates were left to dry overnight at RT, and then 50 µL of 33% (v/v) acetic acid in ddH2O were added to each well. Finally, the absorbance was measured at 570 nm by using a SpectraMax M5 plate reader (Molecular Devices, California, USA) and at 670 nm as background wavelength. […] Additionally, gefitinib, an approved EGFR inhibitor of the quinazoline family, was tested as anti-proliferative positive control. The data represent the mean ± standard deviation derived from three independent biological replicates. Dose–response curves were generated by four-parametric non-linear regression analysis using the GraphPad Prism software (version: 10.1, San Diego, CA, USA). Based on that, IC50 values and standard deviations were calculated for each replicate individually.

HCC1937 = experiment: as above; format: cell-based; conditions: Homo sapiens, 72 h treatment, mean ± SD
Description: as §1, §2

4T1 [1] = experiment: as above; format: cell-based; conditions: Mus musculus, 72 h treatment, mean ± SD
Description: as §1, §2

BT-474 = experiment: as above; format: cell-based; conditions: Homo sapiens, 72 h treatment, mean ± SD
Description: as §1, §2

[2] = test system: MCF-7, MDA-MB-468, BT-474 and HCC1937 breast cancer cells; experiment: Fast screening / CV cell viability, breast cancer cell line panel; format: cell-based, human; set-up: reduction of cell viability: concentration or dose not given beside the values
Description: as §1, §2

4T1 [3] = experiment: ROS production, DHR staining, flow cytometry; format: cell-based, mouse; set-up: key: ↑: induction; ↓: inhibition; ↔: no effect; conditions: 4T1, IC50 for 72 h
Description: The cells were stained with CFSE (1 µM) in PBS containing 0.1% (v/v) FCS for 10 min. Afterwards, cells were washed with PBS, and then seeded with growth medium in 6-well plates. The plates were incubated for 24 h under standard culture conditions. […] Subsequently, the cells were detached using 0.5 mL of 0.05% (v/v) Trypsin–EDTA for 3 min at 37 °C. Then trypsin was deactivated by the addition of FCS-containing growth medium. The cell suspensions were collected, centrifuged for 3 min at 800 rpm, and the cell pellets were resuspended in fresh PBS. Finally, the samples were analyzed by using flow cytometry. For ROS production analyses, the procedure was performed exactly as described above for the cell division experiments, except that the CFSE staining solution was replaced by DHR staining solution resulting in 1 µM of DHR in PBS containing 0.1% (v/v) FCS[34],[35].

4T1 [4] = experiment: Pan-caspase activation, ApoStat staining, flow cytometry; format: cell-based, mouse; set-up: key: ↑: induction; ↓: inhibition; ↔: no effect; conditions: 4T1, IC50 for 72 h
Description: Cells were seeded in 6-well plates and incubated for 24 h under standard culture conditions. […] For the analyses of pan-caspase activation, the cell suspension was centrifuged for 3 min at 800 rpm, and the cell pellet was stained with 100 µL of ApoStat working solution (1 µL of ApoStat and 5% (v/v) FCS in 100 µL of PBS). Cells were incubated for 30 min under standard culture conditions. The cell suspension was centrifuged for 3 min at 800 rpm, and the cell pellet was washed with 1 mL of fresh PBS. Finally, all samples were analyzed by using flow cytometry (FACSAria III, BD Biosciences, New Jersey, USA).

[5] = Urine analysis with Multistix urine test stripes in the 4T1 in vivo study; set-up: species or system BALB/c mice; key to Glucose (urine) / Blood (urine): -: marker was not detectable in the respective urine sample; +: marker was detected
Description: On day 6, the mice were assigned to the study groups using a stratified randomization approach, ensuring that the mean tumor volumes were as similar as possible across all groups. […] The vehicle was 4% (v/v) DMSO in PBS, and the administration route was intraperitoneal (i.p.). The animals were treated daily on days 6–10 (starting from the day when tumors became palpable), 13–17 and day 20. Animals were visually examined daily, and urine samples were collected on the first and last day of treatment and analyzed by Multistix urine test stripes (Siemens Healthineers, Erlangen, Germany). On day 21 of the experiment, the mice were sacrificed using cervical dislocation. Following the sacrifice, the tumor diameters were measured using a caliper. The tumor volume (V) was then calculated using the formula V = L*W^2*0.52[36], where L represents the longest diameter and W the shortest diameter of the tumor.

SMILES: O=c1[nH]c(Nc2ccc([N+](=O)[O-])cc2)nc2ccccc12 [Compound 19, 4′-nitro-9-aza-glycophymine]
- IC50 (MCF-7): 5.5 ± 0.6 µM
- IC50 (HCC1937): 4.3 ± 0.1 µM
- IC50 (4T1 [1]): 12.5 ± 3.7 µM
- IC50 (BT-474): 4 ± 0.2 µM
- IC50 ([2]; 72 h, CV assay, across cell lines, read-out: IC50 values against the breast cancer cell lines): 4 to 6 µM
- concentration below which active in cytotoxicity screening ([2]; 72 h, initial screening): below 10 µM
- anti-proliferative / cytotoxic effect ([2]; 72 h, screening at 1, 10 and 50 µM): significantly reduced cell proliferation
- IC50 ([2]; Homo sapiens, 72 h, CV assay, across cell lines, read-out: IC50 values against the breast cancer cell lines): ~4 µM
- IC50 ([2]; Homo sapiens, 72 h, read-out: IC50 values (National Cancer Institute guideline criterion)): < 30 µg/mL
- reduction of cell viability ([2]; after 72 h of treatment, initial screening): ≥ 50%
- ROS (4T1 [3]): ↔
- Pan-caspases (4T1 [4]): ↑
- Bilirubin (urine) ([5]; 5 mg/kg, Day 6, three mice): small
- Blood (urine) ([5]; 5 mg/kg, Day 6, three mice): -
- Ketones (urine) ([5]; 5 mg/kg, Day 6, three mice): 10 mg/dL
- Leucocytes (urine) ([5]; 5 mg/kg, Day 6, three mice): 25 cells/µL
- Specific gravity (urine) ([5]; 5 mg/kg, Day 6, three mice): 1.025 and 1.000 and 1.030
- pH (urine) ([5]; 5 mg/kg, Day 6, three mice): 6 and 5
- Bilirubin (urine) ([5]; 5 mg/kg, Day 20, three mice): small
- Blood (urine) ([5]; 5 mg/kg, Day 20, three mice): -
- Glucose (urine) ([5]; 5 mg/kg, Day 20, three mice): -
- Ketones (urine) ([5]; 5 mg/kg, Day 20, three mice): 10 mg/dL
- Leucocytes (urine) ([5]; 5 mg/kg, Day 20, three mice): 25 cells/µL
- Proteins (urine) ([5]; 5 mg/kg, Day 20, three mice): 100 mg/dL
- Specific gravity (urine) ([5]; 5 mg/kg, Day 20, three mice): 1.030 and 1.025
- pH (urine) ([5]; 5 mg/kg, Day 20, three mice): 6
- Bilirubin (urine) ([5]; 20 mg/kg, Day 6, three mice): small
- Blood (urine) ([5]; 20 mg/kg, Day 6, three mice): -
- Ketones (urine) ([5]; 20 mg/kg, Day 6, three mice): 10 mg/dL
- Leucocytes (urine) ([5]; 20 mg/kg, Day 6, three mice): 25 cells/µL
- Proteins (urine) ([5]; 20 mg/kg, Day 6, three mice): 30 mg/dL
- Specific gravity (urine) ([5]; 20 mg/kg, Day 6, three mice): 1.025 and 1.030
- Uroglobin (urine) ([5]; 20 mg/kg, Day 6, three mice): 4 mg/dL
- pH (urine) ([5]; 20 mg/kg, Day 6, three mice): 6 and 5
- Bilirubin (urine) ([5]; 20 mg/kg, Day 20, three mice): small; also recorded: moderate
- Blood (urine) ([5]; 20 mg/kg, Day 20, three mice): -
- Ketones (urine) ([5]; 20 mg/kg, Day 20, three mice): 10 mg/dL and 5 mg/dL
- Specific gravity (urine) ([5]; 20 mg/kg, Day 20, three mice): 1.030 and 1.025
- Uroglobin (urine) ([5]; 20 mg/kg, Day 20, three mice): 4 mg/dL and 8 mg/dL
- pH (urine) ([5]; 20 mg/kg, Day 20, three mice): 5 and 6
